Source: the supplement of paper PMC10477900
Counter-ions that a name gives are not always drawn.

What was measured:
HCT116 [1] = assay: viability inhibition vs untreated; higher = more cytotoxic; conditions: 72 h
HCT116 [2] = conditions: 72 h
Procedure: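 HCT116 control and MTA1-KO (CRISPR) HCT116 cells were seeded in 384-well plates (800 cells/well), treated 16 h later with 237 metabolism-related anticancer drugs at five doses (10 uM, 2 uM, 400 nM, 80 nM, 16 nM) for 72 h, two replicates; viability by CCK8. Values are % inhibition of viability relative to untreated cells, plus fitted IC50.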

SMILES | viability inhibition (HCT116 [1]; genotype: MTA1-KO, 16 nM) | viability inhibition (HCT116 [1]; genotype: MTA1-KO, 80 nM) | viability inhibition (HCT116 [1]; genotype: MTA1-KO, 400 nM) | viability inhibition (HCT116 [1]; genotype: MTA1-KO, 2000 nM) | viability inhibition (HCT116 [1]; genotype: MTA1-KO, 10000 nM) | viability inhibition (HCT116 [1]; genotype: control, 16 nM) | viability inhibition (HCT116 [1]; genotype: control, 80 nM) | viability inhibition (HCT116 [1]; genotype: control, 400 nM) | viability inhibition (HCT116 [1]; genotype: control, 2000 nM) | viability inhibition (HCT116 [1]; genotype: control, 10000 nM) | IC50 (HCT116 [2]; genotype: MTA1-KO) | IC50 (HCT116 [2]; genotype: control)
Nc1ncnc2c1c(-c1cnc3[nH]ccc3c1)nn2C1CCCC1 [PP121] | 14.3% | 12.8% | 43.5% | 90.3% | 111% | 10.8% | 16.8% | 25.2% | 86.4% | 104% | 0.675 µM | 0.874 µM
O=C(Nc1cccc(Nc2ncc(Br)c(NCCc3cnc[nH]3)n2)c1)N1CCCC1 [BX912] | -9.54% | 7.13% | 22.8% | 64.5% | 92.4% | -0.895% | -7.72% | 13.9% | 47.2% | 75.2% | 1.27 µM | 1.5 µM
Nc1ccc(-c2ccc3ncc4ccc(=O)n(-c5cccc(C(F)(F)F)c5)c4c3c2)cn1 [Torin 2] | -2.56% | 37.4% | 77.4% | 88.6% | 104% | -9.67% | 18.6% | 72.5% | 87% | 108% | 0.134 µM | 0.289 µM
COc1ccc2[nH]c([S@@+]([O-])Cc3ncc(C)c(OC)c3C)nc2c1 [Esomeprazole Sodium] | 3.92% | 2.7% | 7.98% | 6.88% | 10.1% | 27% | 8.16% | -3.32% | 4.21% | 12% | > 10 µM | > 10 µM
O=C(O[C@@H]1Cc2c(O)cc(O)cc2O[C@@H]1c1cc(O)c(O)c(O)c1)c1cc(O)c(O)c(O)c1 [(-)-Epigallocatechin Gallate] | 13% | -1.62% | 5.38% | 12% | 19.4% | -8.68% | -5.93% | -14.9% | -4.61% | -3.45% | > 10 µM | > 10 µM
O=C(C[C@H]1NCCC[C@@H]1O)Cn1cnc2cc(Br)c(Cl)cc2c1=O [Halofuginone hydrobromide] | 2.99% | -4.56% | 73.6% | 106% | 103% | -19.5% | -8.31% | 72.1% | 111% | 101% | 0.374 µM | 0.371 µM
CC[C@H](C)C(=O)O[C@H]1C[C@H](O)C=C2C=C[C@H](C)[C@H](CC[C@@H](O)C[C@@H](O)CC(=O)O)[C@H]21 [Pravastatin sodium] | 9.21% | -16.3% | -12.8% | -12.2% | -1.55% | 10.2% | -15.3% | -11.6% | -6.15% | 6.05% | > 10 µM | > 10 µM
O=C(O)CNC(=O)c1c(O)c2ccccc2n(Cc2ccccc2)c1=O [IOX 2] | 15.5% | -17.5% | -20.5% | -22% | 9.66% | -6.02% | 3.87% | -7.43% | -4.74% | -0.498% | > 10 µM | > 10 µM
